Experiments:
[1] = mouse, in vivo
Experimental: (§1) A murine model of sclerodermatous cGVHD was initiated by adoptive transfer of T-cell depleted bone marrow plus whole splenocytes from B10.D2 donors into BALB/c recipients that were previously subjected to sub-lethal irradiation. Total bone marrow and irradiation only groups were included as controls. […] Body weight and clinical symptoms (appearance, activity, skin symptoms, diarrhea, conjunctivitis) were measured throughout the study. Immunophenotyping for B cells and T cells was performed on spleens collected from euthanized mice by flow cytometry at two timepoints (day 40 during treatment and on day 76 post-treatment). Levels of circulating immunoglobulins were measured by multiplex cytokine assay at both timepoints.
(§2) On day 40 (during treatment) and day 76 (post-treatment) groups of mice were euthanized for immunophenotyping analysis utilizing a 22-color flow cytometry panel. […] Scoring between 0-2 was assigned for each of the parameters (appearance, activity, skin symptoms, diarrhea, conjunctivitis) and totaled for each mouse.

ITK = molecular target: T1, ITK (Homo sapiens, UniProt Q08881); conditions: ITK expressed in T cells; cited from earlier work
T1 sequence (Q08881 1-620): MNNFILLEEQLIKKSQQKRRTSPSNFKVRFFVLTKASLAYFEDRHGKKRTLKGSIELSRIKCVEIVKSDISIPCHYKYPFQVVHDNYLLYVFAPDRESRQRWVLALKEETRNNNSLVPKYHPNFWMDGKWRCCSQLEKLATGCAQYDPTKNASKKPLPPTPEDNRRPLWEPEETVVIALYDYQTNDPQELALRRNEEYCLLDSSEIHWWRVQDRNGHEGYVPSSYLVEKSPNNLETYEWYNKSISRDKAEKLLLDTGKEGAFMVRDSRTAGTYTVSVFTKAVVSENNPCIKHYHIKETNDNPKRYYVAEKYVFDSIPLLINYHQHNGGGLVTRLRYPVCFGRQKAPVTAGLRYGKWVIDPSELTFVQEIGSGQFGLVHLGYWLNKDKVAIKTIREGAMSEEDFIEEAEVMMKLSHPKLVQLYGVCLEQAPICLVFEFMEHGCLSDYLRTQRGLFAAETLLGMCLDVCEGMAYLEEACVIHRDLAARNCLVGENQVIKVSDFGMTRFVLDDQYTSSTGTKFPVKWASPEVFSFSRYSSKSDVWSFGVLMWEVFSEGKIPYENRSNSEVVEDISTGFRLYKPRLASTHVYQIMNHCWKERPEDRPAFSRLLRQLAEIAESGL

[2] = test system: murine model of sclerodermatous cGVHD; assay: Murine model of sclerodermatous cGVHD: clinical GVHD score and symptoms; type: in vivo, mouse (BALB/c recipients, B10.D2 donors)
Experimental: as §1, §2

[3] = test system: circulating immunoglobulins; assay: Circulating immunoglobulins by multiplex cytokine assay in cGVHD mice; type: in vivo, mouse (BALB/c recipients); conditions: during and post treatment, compared to vehicle
Experimental: as §1

BTK = BTK (Homo sapiens, UniProt Q06187); conditions: reversible, non-covalent; cited from earlier work
BTK, sequence (Q06187 whole entry, species assumed): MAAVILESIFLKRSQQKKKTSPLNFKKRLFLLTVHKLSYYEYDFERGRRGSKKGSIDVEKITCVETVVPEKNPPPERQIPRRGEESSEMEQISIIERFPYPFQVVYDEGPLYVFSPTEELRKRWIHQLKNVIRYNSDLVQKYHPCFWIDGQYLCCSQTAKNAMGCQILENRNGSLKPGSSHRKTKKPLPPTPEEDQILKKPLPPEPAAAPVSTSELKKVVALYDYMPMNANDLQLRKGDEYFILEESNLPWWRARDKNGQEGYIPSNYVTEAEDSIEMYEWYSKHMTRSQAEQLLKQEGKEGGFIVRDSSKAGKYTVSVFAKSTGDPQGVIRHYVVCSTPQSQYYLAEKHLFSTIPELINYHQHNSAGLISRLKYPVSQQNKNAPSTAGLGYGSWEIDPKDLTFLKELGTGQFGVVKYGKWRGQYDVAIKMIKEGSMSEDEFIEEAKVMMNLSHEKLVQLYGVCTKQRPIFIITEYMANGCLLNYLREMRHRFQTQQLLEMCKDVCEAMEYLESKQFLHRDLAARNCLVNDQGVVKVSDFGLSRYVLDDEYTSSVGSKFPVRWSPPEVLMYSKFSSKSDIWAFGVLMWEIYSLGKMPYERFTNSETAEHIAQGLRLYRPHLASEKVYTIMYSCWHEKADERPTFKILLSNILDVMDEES

B cells and T cells = assay: Immunophenotyping of spleen B cells and T cells by flow cytometry in cGVHD mice; type: in vivo, mouse (BALB/c recipients); conditions: during treatment (day 40)
Experimental: as §1, §2

## C=CC(=O)N1CCC[C@@H](n2nc(-c3ccc(Oc4ccccc4)cc3)c3c(N)ncnc32)C1 [Ibrutinib, reference compound]
[1]
  Body weight post-treatment: recovered body weight
  Weight loss during treatment compared to vehicle: slightly elevated

## NC(=O)[C@H]1CCN(c2ncnc(N)c2F)C[C@@H]1N1CCC[C@@H](Nc2cc(Cl)cc(C(F)(F)F)c2)C1=O [Vecabrutinib, (3R,3′R,4'S)-1′-(6-amino-5-fluoropyrimidin-4-yl)-3-((3-chloro-5-(trifluoromethyl)phenyl)amino)-2-oxo-[1,3′-bipiperidine]-4′-carboxamide]
ITK
  Activity against ITK: demonstrates activity
[1]
  Body weight post-treatment: recovered body weight
  Weight loss during treatment compared to vehicle: slightly elevated
[2]; average clinical GVHD score, 0-2 per parameter (appearance, activity, skin symptoms, diarrhea, conjunctivitis) totaled, Day 58, vecabrutinib 50 mg/kg once daily oral gavage, ibrutinib 30 mg/kg in drinking water, day 27 to 45
  Avg. Score Day 58: 2.50
[2]; average clinical GVHD score, 0-2 per parameter totaled, Day 66, vecabrutinib 50 mg/kg once daily oral gavage, ibrutinib 30 mg/kg in drinking water, day 27 to 45
  Avg. Score Day 66: 1.30
[2]; average clinical GVHD score, 0-2 per parameter totaled, Day 71, vecabrutinib 50 mg/kg once daily oral gavage, ibrutinib 30 mg/kg in drinking water, day 27 to 45
  Avg. Score Day 71: 2.90
[2]; treated groups, vecabrutinib 50 mg/kg oral, ibrutinib 30 mg/kg drinking water
  Clinical symptoms (appearance, activity, skin irritation, redness, alopecia and diarrhea): significantly reduced
[2]; vecabrutinib-treated group vs ibrutinib, small sample size
  Clinical score overall compared to ibrutinib: trend toward a more favorable clinical score overall
[3]
  Circulating levels of IgA: reduced
BTK
  BTK inhibition: potent
B cells and T cells
  Activated and proliferating CD4+ and CD8+ T cells: reduced
  B-cell activation: reduced
  B-cell proliferation: reduced
  CD4+ CXCR5+PD-1+ T follicular helper cells: reduced
  CD4+CD25+ FoxP3+ Treg number: reduced
  Cytotoxic granzyme-B+ CD8+ T cells: reduced
  Expression of PD-1 on Tregs: reduced
  Expression of antigen-presentation molecules CD80 and CD86 on B cells: unchanged
  IL-4/5 secreted by B cells: less
  IL-10 secreted by B cells: less
  Number of B220+CD138+ plasma cells: reduced
  Numbers of cytokine secreting CD4+ cells: globally reduced
  Th1/Th2 or Th17/Treg ratios: no differences
  Total B cell numbers: retained
  Total CD3+ T cells: reduced

— patent US20260158033A1, “VECABRUTINIB FOR THE TREATMENT OF GRAFT-VERSUS-HOST DISEASE” (Viracta Therapeutics, Inc., priority 2021, published 2026)
